From patent US8609043B2, “Use of a container of an inorganic additive containing plastic material” (M & P Patent Aktiengesellschaft, priority 2001, dated 2013)

Experiment: Stability of formulations containing testosterone in containers of different material (HPLC)
Type: physicochemical
Experimental: As an example for the aforementioned considerations in table 1 are shown the results of tests investigating the stability of formulations containing the steroid hormone testosterone in containers of different material.
The term “remaining drug after storage” is the amount of testosterone remaining in the formulation after storage for 22 hours. The remaining drug was measured by HPLC technique.

Question: With `C[C@]12CC[C@H]3[C@@H](CCC4=CC(=O)CC[C@@]43C)[C@@H]1CC[C@@H]2O` [testosterone] as the compound, how does the “Remaining drug after storage (%)” value (Methanolic formulation, primary packaging material Glass, storage for 22 hours) read?
Answer: The value was 100%.

Question: What about the “Remaining drug after storage (%)” value (Oil-based formulation, primary packaging material Glass, storage for 22 hours) of the same compound?
Answer: The value was “≈80%”.

Question: What about the “Remaining drug after storage (%)” value (Oil-based formulation, primary packaging material LDPE + TiO2, storage for 22 hours) of the same compound?
Answer: Its value is 100%.

Question: What about the “Remaining drug after storage (%)” value (Oil-based formulation, primary packaging material LDPE, storage for 22 hours) of the same compound?
Answer: Its value is “≈30%”.

Question: What about the “Remaining drug after storage (%)” value (Oil-based formulation, primary packaging material PP, storage for 22 hours) of the same compound?
Answer: The value was “≈50%”.
